Where a name gives a salt, the structure may show the parent alone. Marks after values point to notes of the source that are not given here.
How the values were obtained:
5-HT2C receptor = biological target: T1, 5-HT2C receptor (Sus scrofa, UniProt K7GSR7); assay: 5-HT2C receptor binding; design: species or system pig; conditions: choroid plexus of pigs, ligand 3H-mesulergin 1.0 nM
T1 construct: from tissue; host or cells: pig choroid plexus membrane preparation
T1 sequence (K7GSR7 1-457): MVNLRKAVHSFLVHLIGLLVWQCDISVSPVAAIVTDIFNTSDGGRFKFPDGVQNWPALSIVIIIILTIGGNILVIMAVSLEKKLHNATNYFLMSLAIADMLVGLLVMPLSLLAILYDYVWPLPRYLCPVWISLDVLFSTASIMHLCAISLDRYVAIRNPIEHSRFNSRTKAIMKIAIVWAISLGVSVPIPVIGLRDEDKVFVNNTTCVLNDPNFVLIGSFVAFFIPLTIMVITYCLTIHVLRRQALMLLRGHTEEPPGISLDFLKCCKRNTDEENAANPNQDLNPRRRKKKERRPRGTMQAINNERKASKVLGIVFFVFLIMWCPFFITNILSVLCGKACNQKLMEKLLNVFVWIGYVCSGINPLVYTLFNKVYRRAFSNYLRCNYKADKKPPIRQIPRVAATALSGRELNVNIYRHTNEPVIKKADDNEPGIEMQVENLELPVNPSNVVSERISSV
Method: (§1) Receptor bindings—with the exception of the 5-HT2C receptor binding—were determined by using cerebral region preparations of male Wistar rats weighing 120-200 g. For the preparation of 5-HT1A receptor binding frontal cortex preparations were used. The al receptor binding studies were performed from isolated frontal cortex pre-parations. For the 5-HT2C receptor binding experiments choroid plexus of pigs was used. The protein contents of membrane preparations were determined by the method of Lowry (1951).
(§2) In the course of 5-HT2C and α1 receptor binding experiments the ligands were ^3H-mesulergin (1.0 nM) and ^3H-prazosine (0.3 nM), respectively. The non-specifically binding ligands were mianserine (1 μM and prazosine (1 μM), respectively.
(§3) The IC50 value is the value of concentration where the difference between total and non-specific binding is 50% in the presence of a determined concentration of a specific ligand.

α1 receptor = α1 receptor binding experiment; conditions: rat isolated frontal cortex preparation, ligand 3H-prazosine 0.3 nM
Method: as §1, §2, §3

5-HT1A receptor = biological target: T2, 5-HT1A receptor (Rattus norvegicus, UniProt P19327); assay: 5-HT1A receptor binding; conditions: rat frontal cortex preparation, ligand tritiated 8-OH-DPAT
T2 construct: from tissue; host or cells: rat frontal cortex membrane preparation
T2 sequence (P19327 1-422): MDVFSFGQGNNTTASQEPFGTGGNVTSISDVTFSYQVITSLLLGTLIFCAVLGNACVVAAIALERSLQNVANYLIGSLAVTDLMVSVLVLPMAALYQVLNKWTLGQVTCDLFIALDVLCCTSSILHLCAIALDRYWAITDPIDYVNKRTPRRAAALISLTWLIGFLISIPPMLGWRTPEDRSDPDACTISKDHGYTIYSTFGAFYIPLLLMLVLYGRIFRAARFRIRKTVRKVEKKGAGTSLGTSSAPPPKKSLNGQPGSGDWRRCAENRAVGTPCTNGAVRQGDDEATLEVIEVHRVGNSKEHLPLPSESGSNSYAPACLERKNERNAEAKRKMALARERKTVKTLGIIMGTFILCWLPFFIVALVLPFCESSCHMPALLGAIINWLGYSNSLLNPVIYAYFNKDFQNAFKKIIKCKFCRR
Method: as §1
5-HT1A receptor binding was measured according to the method of Peroutka (Peroutka, S. J.: J. Neurochem. 47, p. 529 (1986)). The ligand was tritiated 8-hydroxy-N,N-dipropyl-2-aminotetraline (8-OH-DPAT). For the determination of non-specific binding 10 μM serotonin was applied. Incubation […] volume was 250 μl. Incubation was carried out at a temperature of 25 C for 30 minutes. The reaction was terminated by the addition of 9 ml of ice-cold 50 mM TRIS-HCl (pH 7.7) buffer and quick vacuum filtration using Whatman GFIB fibreglass filtering paper. Radioactivity of the filter boards was measured by liquid scintillation spectrometry.
as §3

Male Wistar rats = assay: Vogel's drinking conflict test; assay type: in vivo; conditions: ip, 0.5 h, rat, i.p. 30 min prior to test, increase in tolerated shocks, read-out: MED
Method: The anxiolytic effect of the compounds according to the invention was investigated on rats according to Vogel's drinking conflict test and elevated plus-maze test (S. Pelow, P. Chopin, S. E. File, J. Briley: Neurosci. Methods 14, p. 149 (1985)).
Male Wistar rats weighing 160-180 g were used for the experiment. The animals were deprived of drinking water for 48 hours and fasted for 24 hours prior to test. The test compounds or vehicle were administered intraperitoneally, 30 min prior to test. […] Following every 20 licks electric shocks (0.7 mA) were applied through the drinking spout during the 5 min test period. The number of punished licks were recorded. The effect of the test compounds was expressed as % increase in numbers of tolerated shocks. Minimal effective doses (MED) were determined for each compound.

Male Mongolian gerbils = assay: Neuroprotective effect in global ischemia test (bilateral carotid occlusion); assay type: in vivo, Mongolian gerbil; conditions: gerbil
Method: Male Mongolian gerbils weighing 60-90 g were used as test animals. The test compounds were administered intraperitoneally at a dose of 30 mg/kg 45 min after surgery. Test substances were suspended in 0.4% methylcellulose solution. In diethylether narcosis, the right and left common carotid arteries were exposed through an anterior midline cervical incision and isolated from the vagus nerves and the surrounding tissues. Full arrest of carotid blood flow was achieved by tightening an aneurysm clip for 3 min. During surgery the body temperature of the animals was kept at the individual preoperative level (37.5±0.5° C.) with the help of a heating pad and a heating lamp.
4 days after the surgery the animals were anaesthetized with 60 mg/kg i.p nembutal (10 ml/kg) and perfused through the heart first with saline then with a fixative solution containing 0.1% glutaraldehyde, 4% paraformaldehyde and 0.2% picric acid in 0.1 M phosphate buffer (pH 7.4) for 30 min. The brain was removed from the skull and post fixed for at least 1 week at 4° C. in the same fixative solution.
Alternate coronal sections of 60 μm thickness were cut from different levels of the dorsal hippocampus by a microtome. The sections were repeatedly washed in 0.1 M phosphate buffer (pH 7.4) and stained by silver impregnation. The sections were stored twice in a preparatory solution (2% sodium hydroxide and 0.875% ammonium hydroxide solution) for 5 minutes, impregnated for 10 minutes in 0.875% ammonium hydroxide and 0.5% silver nitrate solution) and placed into a washing solution (0.5% sodium carbonate and 0.01% ammonium nitrate dissolved in a 29.1% aqueous ethanol solution) twice for 2 minutes and once for one minute. The slices were then developed in 9.9% ethanol solution containing 1.5% formaldehyde and 0.01% ammonium nitrate and fixed three times for 3 minutes in a 0.5% acetic acid solution. The stained slices were placed in 0.1M phosphate buffer (pH 7.4) and chrome gelatine, applied on plates, dehydrated and treated with xylol. The cover plates were fixed with DPX glue (Fluka).
The sections were examined under light microscopy and the overall neuronal damage in the hippocampal CA1 subfield in both hippocampi was scored on a 6-point scale: (O) undamaged, (1)—0-10%; (2)—10-30%; (3)—30-50%; (4)—50-70%; (5)—70-90%; (6)—90-100% cell loss. Group differences between drug-treated and vehicle-treated groups were statistically analysed by Mann-Whitney U-test.

Row | Structure (SMILES) | melting point | IC50 (5-HT1A receptor) | also measured
1 | CCC1(CCCN2CCN(c3cccc(Cl)c3)CC2)C(=O)Nc2ccc(Cl)cc21 (centres unmarked) [Example 57, 5-Chloro-3-{3-[4-(3-chlorophenyl)-piperazin-1-yl]-propyl}-3-ethyl-1,3-dihydro-2H-indol-2-one] | 117 to 119 °C |  | IC50 (5-HT2C receptor): < 50 nM
2 | CCC1(CCCCN2CCN(c3cccc(Cl)c3)CC2)C(=O)Nc2ccccc21 (centres unmarked) [Example 60, 3-{4-[4-(3-Chlorophenyl)-piperazin-1-yl]-butyl}-3-ethyl-1,3-dihydro-2H-indol-2-one-H2O—HCl-isopropanol (1:1:1:1)] |  |  | IC50 (α1 receptor): < 100 nM
3 | CCC1(CCCCN2CCN(c3cccc(Cl)c3)CC2)C(=O)Nc2ccc(Br)cc21 (centres unmarked) [Example 61, 5-Bromo-3-{4-[4-(3-chlorophenyl)-piperazin-1-yl]-butyl}-3-ethyl-1,3-dihydro-2H-indol-2-one monooxalate] |  | > 200 nM | IC50 (5-HT2C receptor): < 100 nM
4 | CC(C)CC1(CCCCN2CCN(c3ccccn3)CC2)C(=O)Nc2ccccc21 (centres unmarked) [Example 62, 3-Isobutyl-3-[4-(4-pyridin-2-yl-piperazin-1-yl)-butyl]-1,3-dihydro-2H-indol-2-one] | 158 to 159 °C |  | IC50 (α1 receptor): < 100 nM
5 | CCC1(CCCCN2CCN(c3cccc4c3OCCO4)CC2)C(=O)Nc2ccccc21 (centres unmarked) [Example 63, 3-{4-[4-(2,3-Dihydrobenzo[1,4]dioxin-5-yl)-piperazin-1-yl]-butyl}-3-ethyl-1,3-dihydro-2H-indol-2-one] | 169 to 170 °C |  | IC50 (α1 receptor): < 50 nM
6 | CCC1(CCCCN2CCN(c3ccccc3)CC2)C(=O)Nc2ccccc21 (centres unmarked) [Example 68, 3-[4-(4-Phenylpiperazin-1-yl)-butyl]-3-ethyl-1,3-dihydro-2H-indol-2-one monooxalate] |  | > 200 nM | minimal effective dose (Male Wistar rats): 10 mg/kg; IC50 (5-HT2C receptor): < 100 nM
7 | CCC1(CCCCN2CCN(c3ccccc3OC)CC2)C(=O)Nc2ccccc21 (centres unmarked) [Example 69, 3-Ethyl-3-{4-[4-(2-methoxyphenyl)-piperazin-1-yl]-butyl}-1,3-dihydro-2H-indol-2-one monooxalate] |  |  | minimal effective dose (Male Wistar rats): 10 mg/kg
8 | CCC1(CCCCN2CCN(c3ccccn3)CC2)C(=O)Nc2ccccc21 (centres unmarked) [Example 71, 3-Ethyl-3-[4-(4-pyridin-2-yl-piperazin-1-yl)-butyl]-1,3-dihydro-2H-indol-2-one] |  |  | minimal effective dose (Male Wistar rats): 20 mg/kg
9 | CC(C)CC1(CCCCN2CCN(c3cccc(Cl)c3)CC2)C(=O)Nc2ccccc21 (centres unmarked) [Example 75, 3-{4-[4-(3-Chlorophenyl)-piperazin-1-yl]-butyl}-3-isobutyl-1,3-dihydro-2H-indol-2-one monohydrochloride] |  | > 200 nM | minimal effective dose (Male Wistar rats): 10 mg/kg
10 | CCC1(CCCCN2CCN(c3cccc(Cl)c3)CC2)C(=O)Nc2c(Cl)cc(Cl)cc21 (centres unmarked) [Example 79, 5,7-Dichloro-3-[4-[4-(3-chlorophenyl)-piperazin-1-yl]-butyl]-3-ethyl-1,3-dihydro-2H-indol-2-one] | 182 to 183 °C | > 400 nM | 
11 | CCC1(CCCCN2CCN(c3ccc(Cl)cc3)CC2)C(=O)Nc2cc(F)ccc21 (centres unmarked) [Example 86, 3-{4-[4-(4-Chlorophenyl)-piperazin-1-yl]-butyl}-3-ethyl-6-fluoro-1,3-dihydro-2H-indol-2-one] | 145 to 147 °C | > 300 nM | 

Continued, in another order:

Row | melting point | IC50 (5-HT1A receptor) | Structure (SMILES) | also measured
12 | 114 to 115 °C |  | CCC1(CCCCN2CCN(c3ccccn3)CC2)C(=O)Nc2ccc(Br)cc21 (centres unmarked) [Example 59, 5-Bromo-3-ethyl-3-[4-(4-pyridin-2-yl-piperazin-1-yl)-butyl]-1,3-dihydro-2H-indol-2-one] | IC50 (α1 receptor): < 100 nM
13 | 152 to 154 °C |  | CC(C)CC1(CCCCN2CCN(c3cccc4c3OCCO4)CC2)C(=O)Nc2ccccc21 (centres unmarked) [Example 64, 3-{4-[4-(2,3-Dihydrobenzo[1,4]dioxin-5-yl)-piperazin-1-yl]-butyl}-3-isobutyl-1,3-dihydro-2H-indol-2-one] | IC50 (α1 receptor): < 50 nM
14 |  | > 200 nM | CCC1(CCCCN2CCN(c3cccc(Cl)c3)CC2)C(=O)Nc2ccc(S(N)(=O)=O)cc21 (centres unmarked) [Example 72, 3-{4-[4-(3-Chlorophenyl)-piperazin-1-yl]-butyl}-3-ethyl-1,3-dihydro-2H-indol-2-one 5-sulfonamide monooxalate] | IC50 (5-HT2C receptor): < 100 nM
15 |  | > 300 nM | CCC1(CCCCN2CCN(c3cccc(Cl)c3)CC2)C(=O)Nc2cc(F)c(Cl)cc21 (centres unmarked) [Example 89, 5-Chloro-3-{4-[4-(3-chlorophenyl)-piperazin-1-yl]-butyl}-3-ethyl-6-fluoro-1,3-dihydro-2H-indol-2-one monohydrochloride] | 
16 | 148 to 150 °C | > 300 nM | CCC1(CCCCN2CCN(c3ccc(Cl)cc3)CC2)C(=O)Nc2ccc(F)cc21 (centres unmarked) [Example 90, 3-{4-[4-(4-Chlorophenyl)-piperazin-1-yl]-butyl}-3-ethyl-5-fluoro-1,3-dihydro-2H-indol-2-one] | Effect (%) (Male Mongolian gerbils; change of CA1 cell loss score vs. control, 30 mg/kg i.p.): −38%; CA1 cell loss (score) (Male Mongolian gerbils; 30 mg/kg i.p. 45 min after surgery, scored 4 days after surgery on 6-point scale): 2.73* score
17 |  | > 400 nM | CCC1(CCCCN2CCN(c3ccc(Cl)c(C(F)(F)F)c3)CC2)C(=O)Nc2ccccc21 (centres unmarked) [Example 96, 3-{4-[4-(4-Chloro-3-trifluoromethyl-phenyl)-piperazin-1-yl]-butyl}-3-ethyl-1,3-dihydro-2H-indol-2-one monohydrochloride] | 

Reference: US7786129B2, “Piperazine derivatives of dialkyl oxindoles” (Egis Gyogyszergyar Nyrt, priority 2004, dated 2010)
